Test results from patent publication US20070293510A1, “Thiadiazole compounds and use thereof” (Sumitomo Chemical company, Limited ( a Japanese corporation), priority 2002, published 2007).

What follows are molecules tested on cotton aphids (Aphis gossypii) (assay: Test Example: cotton aphid control on cucumber plants, spray of diluted formulation). Settings: formulation per Formulation Example 5 diluted with water to 500 ppm active ingredient; sprayed 20 ml/cup on cucumber plants with about 20 cotton aphids; counted on the 6th day after application.
Format: in vivo
Description: Each formulation of the present compound (1), (3), (4), (6), (7), (8), (12), (13), (14), (15), (16), (17), (18), (19), (20), (21), (22), (23), (24), (25), (26), (28), (30), (31), (33), (34), (35), (36), (37), (38), (42), (43) and (44) obtained according to the Formulation Example 5 was diluted with water so that the active ingredient concentration came to 500 ppm to prepare a diluting liquid. The seeds of cucumber were planted in polyethylene cups and grown until their first foliage leaves developed, on which about 20 cotton aphids (Aphis gossypii) were made parasitic. After one day, the diluting liquid was sprayed at the rate of 20 ml/cup onto the cucumber plants. On the 6th day after the application, the number of cotton aphids was examined. As a result, the numbers of the living cotton aphids were three or less.
`CSc1nsc(OCc2ncccn2)n1` [present compound (36), 5-(2-pyrimidylmethyloxy)-3-methylthio-1,2,4-thiadiazole] was tested, and the “numbers of the living cotton aphids” value was “three or less”.
For `CCOCSc1nsc(OCc2ccccc2)n1` [present compound (42), 5-benzylloxy-3-ethoxymethylthio-1,2,4-thiadiazole], the “numbers of the living cotton aphids” value was “three or less”.
`C=CCSc1nsc(OCc2ccccc2)n1` [present compound (30), 5-benzyloxy-3-allylthio-1,2,4-thiadiazole] was tested, and the “numbers of the living cotton aphids” value was “three or less”.
`CSc1nsc(OCc2c(F)cccc2F)n1` [present compound (16), 5-(2,6-difluorobenzyloxy)-3-methylthio-1,2,4-thiadiazole] was tested, and the “numbers of the living cotton aphids” value was “three or less”.
`CSc1nsc(OCc2ccc(Cl)cc2)n1` [present compound (4), 5-(4-chlorobenzyloxy)-3-methylthio-1,2,4-thiadiazole] was tested, and the “numbers of the living cotton aphids” value was “three or less”.
In the case of `CSc1nsc(OCc2cccc(Cl)n2)n1` [present compound (35), 5-(6-chloro-2-pyridylmethyloxy)-3-methylthio-1,2,4-thiadiazole], the “numbers of the living cotton aphids” value is reported as “three or less”.
For `CSc1nsc(OCc2ccc(F)cc2)n1` [present compound (12), 5-(4-fluorobenzyloxy)-3-methylthio-1,2,4-thiadiazole], the “numbers of the living cotton aphids” value was “three or less”.
In the case of `CSc1nsc(OCc2cccc(C(F)(F)F)c2)n1` [present compound (6), 5-(3-trifluoromethylbenzyloxy)-3-methylthio-1,2,4-thiadiazole], the “numbers of the living cotton aphids” value is reported as “three or less”.
In the case of `CSc1nsc(OCc2cc(Cl)cc(Cl)c2)n1` [present compound (28), 5-(3,5-dichlorobenzyloxy)-3-methylthio-1,2,4-thiadiazole], the “numbers of the living cotton aphids” value is reported as “three or less”.
For `CC(=O)OCSc1nsc(OCc2ccccc2)n1` [present compound (44), 5-bezyloxy-3-acetoxymethylhio-1,2,4-thiadiazole], the “numbers of the living cotton aphids” value was “three or less”.
In the case of `CSc1nsc(OCCc2ccccc2)n1` [present compound (23), 5-(2-phenylethoxy)-3-methylthio-1,2,4-thiadiazole], the “numbers of the living cotton aphids” value is reported as “three or less”.
For `c1ccc(CSc2nsc(OCc3cncnc3)n2)cc1` [present compound (38), 5-(5-pyrimidylmethyloxy)-3-benzylthio-1,2,4-thiadiazole], the “numbers of the living cotton aphids” value was “three or less”.
`CSc1nsc(OCc2ccc(Cl)c(Cl)c2)n1` [present compound (18), 5-(3,4-dichlorobenzyloxy)-3-methylthio-1,2,4-thiadiazole] was tested, and the “numbers of the living cotton aphids” value was “three or less”.
With `CSc1nsc(OCc2cccc(Cl)c2)n1` [present compound (3), 5-(3-chlorobenzyloxy)-3-methylthio-1,2,4-thiadiazole] the “numbers of the living cotton aphids” value was “three or less”.
With `CSc1nsc(OCc2ccc(C(F)(F)F)cc2)n1` [present compound (7), 5-(4-trifluoromethylbenzyloxy)-3-methylthio-1,2,4-thiadiazole] the “numbers of the living cotton aphids” value was “three or less”.
For `CSc1nsc(OC(C)c2ccccc2)n1` (centres unmarked) [present compound (22), 5-(1-phenylethoxy)-3-methylthio-1,2,4-thiadiazole], the “numbers of the living cotton aphids” value was “three or less”.
For `c1ccc(COCSc2nsc(OCc3ccccc3)n2)cc1` [present compound (43), 5-bezyloxy-3-benzyloxymethylhio-1,2,4-thiadiazole], the “numbers of the living cotton aphids” value was “three or less”.
In the case of `CSc1nsc(OCc2cc(F)cc(F)c2)n1` [present compound (17), 5-(3,5-difluorobenzyloxy)-3-methylthio-1,2,4-thiadiazole], the “numbers of the living cotton aphids” value is reported as “three or less”.
For `CSc1nsc(OCCCc2ccccc2)n1` [present compound (25), 5-(3-phenylpropyloxy)-3-methylthio-1,2,4-thiadiazole], the “numbers of the living cotton aphids” value was “three or less”.
For `COc1ccc(CSc2nsc(OCc3ccccc3)n2)cc1` [present compound (33), 5-benzyloxy-3-(4-methoxybenzyl)thio-1,2,4-thiadiazole], the “numbers of the living cotton aphids” value was “three or less”.
In the case of `CSc1nsc(OCc2ccc(Br)cc2)n1` [present compound (13), 5-(4-bromobenzyloxy)-3-methylthio-1,2,4-thiadiazole], the “numbers of the living cotton aphids” value is reported as “three or less”.
With `CSc1nsc(OCc2ccccc2)n1` [present compound (1), 5-benzyloxy-3-methylthio-1,2,4-thiadiazole] the “numbers of the living cotton aphids” value was “three or less”.
`CSc1nsc(OCc2ccccn2)n1` [present compound (19), 5-(2-pyridylmethyloxy)-3-methylthio-1,2,4-thiadiazole] was tested, and the “numbers of the living cotton aphids” value was “three or less”.
In the case of `c1ccc(COc2nc(SCc3ccccc3)ns2)cc1` [present compound (31), 5-benzyloxy-3-benzylthio-1,2,4-thiadiazole], the “numbers of the living cotton aphids” value is reported as “three or less”.
With `CSc1nsc(OCCc2ccccn2)n1` [present compound (24), 5-(2-pyridyl-2-ethyloxy)-3-methylthio-1,2,4-thiadiazole] the “numbers of the living cotton aphids” value was “three or less”.
With `CSc1nsc(OCc2ccc(Cl)nc2)n1` [present compound (21), 5-(6-chloro-3-pyridyl)methyloxy-3-methylthio-1,2,4-thiadiazole] the “numbers of the living cotton aphids” value was “three or less”.
In the case of `CSc1nsc(OCc2ccc(C)cc2)n1` [present compound (8), 5-(4-methylbenzyloxy)-3-methylthio-1,2,4-thiadiazole], the “numbers of the living cotton aphids” value is reported as “three or less”.
For `CSc1nsc(OCc2ccncc2)n1` [present compound (34), 5-(4-pyridylmethyloxy)-3-methylthio-1,2,4-thiadiazole], the “numbers of the living cotton aphids” value was “three or less”.
With `CSc1nsc(OCc2ccc(I)cc2)n1` [present compound (14), 5-(4-iodobenzyloxy)-3-methylthio-1,2,4-thiadiazole] the “numbers of the living cotton aphids” value was “three or less”.
`CSc1nsc(OCc2cncnc2)n1` [present compound (37), 5-(5-pyrimidylmethyloxy)-3-methylthio-1,2,4-thiadiazole] was tested, and the “numbers of the living cotton aphids” value was “three or less”.
`CSc1nsc(OCc2ccc(OC(F)(F)F)cc2)n1` [present compound (15), 5-(4-trifluoromethoxybenzyloxy)-3-methylthio-1,2,4-thiadiazole] was tested, and the “numbers of the living cotton aphids” value was “three or less”.
`CSc1nsc(OCc2cccc([N+](=O)[O-])c2)n1` [present compound (26), 5-(3-nitrobenzyloxy)-3-methylthio-1,2,4-thiadiazole] was tested, and the “numbers of the living cotton aphids” value was “three or less”.
